# Reference: patent US20250344731A1, “SALTY TASTE/UMAMI ENHANCER” (AJINOMOTO CO., INC., priority 2023, published 2025)
# Experiments:
# [1] = Sensory evaluation of saltiness enhancement function, naringenin/naringin added to NaCl aqueous solution (Example 1); conditions: for saltiness intensity: scale NC = 1.00, PC 0.9% NaCl = 5.5; for saltiness enhancement function: addition of 1 ppm or more to salt water, function = saltiness intensity 1.8 points or more
# Description: As shown in Table 1: NaCl aqueous solution (weight g/100 g), various NaCl aqueous solutions (saline solutions) were prepared. Filtered water at ordinary temperature was used for preparation. Water, naringenin (Penta Manufacturing), or naringin (IKEDA CORPORATION) were weighed and added to the prepared 0.8% aqueous solution at various concentrations shown in Table 2: Prepared sensory evaluation samples. The saltiness intensity of each sample was blindly evaluated using a scoring system in 0.1 point increments, with the saltiness intensity of NC in test plot 1 as 1.00 point and the saltiness intensity of PC in test plot 2 as 5.5 points. The evaluation was performed by a trained panel of three, and the average score of each panel was used. Samples with a saltiness intensity of 1.8 points or more (NaCl 0.84% or more) due to the addition were evaluated to “have a saltiness enhancement function”. In addition, the presence or absence, and intensity of off-taste (bitterness and harsh taste other than saltiness) were also evaluated. The evaluation results are shown in Table 3: Sensory evaluation (saltiness intensity).
# [2] = Sensory evaluation of umami enhancement function, naringenin/naringin added to sodium aspartate umami solution (Example 2); conditions: 30 ppm added to NC2 (Asp-Na, sodium aspartate 0.2%); for umami intensity (points): NC2 = 0.10 point; for degree of umami enhancement (times): relative to NC2
# Description: (§1) As shown in Table 4: Umami solution (weight g/100 g), an umami solution was prepared. Water at ordinary temperature was used for preparation. Water, naringenin (Penta manufacturing) or naringin (IKEDA CORPORATION) were weighed and added to each of the prepared umami solutions or water at various concentrations shown in Table 5: Prepared sensory evaluation samples. The umami intensity of each sample was blindly evaluated using a scoring system in 0.01 point increments, with the umami intensity of water in test plot 1 as 0 point, the umami intensity of NC in test plot 3 as 0.30 points, and the umami intensity of NC2 in test plot 4 as 0.10 point. The evaluation was performed by a trained panel of three, and the average score of each panel was used. Samples whose umami intensity was enhanced by 1.5 times or more (sodium glutamate 0.45 points or more, sodium aspartate 0.15 points or more) due to the addition were evaluated to “have an umami enhancement function”. In addition, the presence or absence, and intensity of off-taste (bitterness and harsh taste other than umami) were also evaluated. The evaluation results are shown in Table 6: Sensory evaluation (umami intensity).
# [3] = Sensory evaluation of umami enhancement function, naringenin/naringin added to sodium glutamate umami solution or water (Example 2); conditions: for umami enhancement function: addition to umami solution (sodium glutamate, sodium aspartate), 30 ppm, function = 1.5 times or more
# Description: as §1
# [4] = Sensory evaluation of saltiness enhancement function, naringenin/naringin added to NaCl aqueous solution (Example 1); conditions: 30 ppm added to water (NaCl 0%); scale NC 0.8% NaCl = 1.00, PC 0.9% NaCl = 5.5; panel of three, average
# [5] = Sensory evaluation of umami enhancement function, naringenin-related flavonoid components in umami solution (Example 4); conditions: for degree of umami enhancement (times) / umami intensity (points): 30 ppm in NC (sodium glutamate 0.1%); for degree of umami enhancement (times): relative to NC; for umami intensity (points): scale water = 0, NC = 0.30, panel of three, average
# Description: • 1) The five naringenin-related flavonoid components evaluated in Example 3 were used. • 2) Quercetin was used as the control component. Umami solutions were prepared as shown in Table 10: Umami solution (weight g/100 g). Water at ordinary temperature was used for preparation. Each naringenin-related flavonoid component and the like dissolved in propylene glycol (SIGMA) at 10000 ppm was added to the prepared 0.1% umami aqueous solution such that the concentration at the time of eating was 30 ppm (Table 11). The umami intensity of each sample was blindly evaluated using a scoring system in 0.05 point increments, with the umami intensity of water in test plot 1 as 0 point and the umami intensity of NC in test plot 2 as 0.30 points. The evaluation was performed by a trained panel of three, and the average score was used. The umami enhancement function of samples whose umami intensity was enhanced by 1.5 times or more (sodium glutamate 0.45 points or more) due to the addition was evaluated to be functional. In addition, the presence or absence, and intensity of off-taste (bitterness and harsh taste other than umami) were also evaluated. The evaluation results are shown in Table 12: Sensory evaluation (umami intensity).
# [6] = Sensory evaluation of saltiness enhancement function, naringenin-related flavonoid components in NaCl aqueous solution (Example 3); conditions: for saltiness intensity: 30 ppm in NC salt water (NaCl 0.8%), scale NC = 1.0, PC1 0.9% = 2.0, PC2 1.0% = 3.0, panel of three, average
# Excerpt: 1) The following flavonoid components were used as naringenin-related flavonoid components: • Luteolin (manufactured by Salus Nutra Inc.), pinocembrin (manufactured by Xi'an Demeter Biotech Co., Ltd.), liquiritigenin (manufactured by Xi'an Julong Import and Export Co., Ltd.), apigenin (manufactured by Xi'an Best Bio-Tech Co., Ltd.), and acacetin (manufactured by Xi'an Reain Biotechnology Co., Ltd.)
# 2) The following compound was used as control component: Quercetin (manufactured by Medience Corporation) (structure shown below)
# As shown in Table 7: NaCl aqueous solution (weight g/100 g), various NaCl aqueous solutions (saline solutions) were prepared. Water at ordinary temperature was used for preparation.
# Each naringenin-related flavonoid component dissolved in propylene glycol (SIGMA) at 10000 ppm was added to the prepared 0.8% salt water solution such that the concentration at the time of eating (corresponding to the content of the present flavonoid component or a salt thereof in the oral ingestion product at the time of oral ingestion, as a flavonoid component relative to the oral ingestion product) was 30 ppm (Table 8).
# The saltiness intensity of each sample was blindly evaluated using a scoring system in 0.5 point increments, with the saltiness intensity of NC in test plot 1 as 1.0 point, the saltiness intensity of PC1 as 2.0 points, and the saltiness intensity of PC2 as 3.0 points. The evaluation was performed by a trained panel of three, and the average score was used. Since the saltiness intensity of 2.0 points of PC1 is evaluated to be clearly stronger in saltiness than NC, samples with a saltiness intensity of 1.5 points or more (NaCl 0.85% or more) were evaluated to have a saltiness enhancement function. In addition, the presence or absence, and intensity of off-taste (bitterness and harsh taste other than saltiness) were also evaluated. The evaluation results are shown in Table 9: Sensory evaluation (saltiness intensity).
# [7] = 1 ppm added to NC salt water (NaCl 0.8%)
# [8] = 10 ppm added to NC salt water (NaCl 0.8%)
# [9] = 30 ppm added to NC salt water (NaCl 0.8%)
# [10] = 30 ppm added to NC1 (MSG, sodium glutamate 0.1%), NC1 = 0.30 points
# [11] = 30 ppm added to NC1 (MSG, sodium glutamate 0.1%), relative to NC1
# [12] = 30 ppm added to water, scale water = 0, NC1 = 0.30, NC2 = 0.10
smiles,measurement,setting,value
"O=C1C[C@@H](c2ccc(O)cc2)Oc2cc(O)cc(O)c21 (stereo in doubt) [Naringenin, 5,7-dihydroxy-2-(4-hydroxyphenyl)chroman-4-one]",saltiness intensity,[1]; [7],1.9 points
same,saltiness intensity,[1]; 5 ppm added to NC salt water (NaCl 0.8%),2.4 points
same,saltiness intensity,[1]; [8],3.0 points
same,saltiness intensity,[1]; [9],2.9 points
same,saltiness enhancement function,[1],showed a saltiness enhancement function
same,umami intensity (points),[2],0.20 points
same,degree of umami enhancement (times),[2],2.0 times
same,umami intensity (points),[3]; [10],0.47 points
same,degree of umami enhancement (times),[3]; [11],1.6 times
same,degree of umami enhancement (times),[3]; 30 ppm added to water,0 times
same,umami intensity (points),[3]; [12],0.00 points
same,umami enhancement function,[3],showed an umami enhancement function
same,saltiness intensity,[4],0 points
"COc1ccc(-c2cc(=O)c3c(O)cc(O)cc3o2)cc1 [Acacetin, 5,7-dihydroxy-4-methoxyflavone]",degree of umami enhancement (times),[5],1.67 times
same,umami intensity (points),[5],0.50 points
same,saltiness intensity,[6],3.5 points
"O=c1cc(-c2ccc(O)cc2)oc2cc(O)cc(O)c12 [Apigenin, 5,7-dihydroxy-2-(4-hydroxyphenyl)-4H-1-benzopyran-4-one]",degree of umami enhancement (times),[5],1.87 times
same,umami intensity (points),[5],0.56 points
same,saltiness intensity,[6],3.5 points
"O=C1C[C@@H](c2ccc(O)cc2)Oc2cc(O)ccc21 [Liquiritigenin, (2S)-4′,7-dihydroxyflavan-4-one]",degree of umami enhancement (times),[5],1.87 times
same,umami intensity (points),[5],0.56 points
same,saltiness intensity,[6],3.5 points
"O=c1cc(-c2ccc(O)c(O)c2)oc2cc(O)cc(O)c12 [Luteolin, 2-(3,4-dihydroxyphenyl)-5,7-dihydroxy-4-chromenone]",degree of umami enhancement (times),[5],1.43 times
same,umami intensity (points),[5],0.43 points
same,umami enhancement effect,"[5]; 30 ppm in umami solution (sodium glutamate 0.1%), functional = 1.5 times or more",tendency to enhance umami
same,saltiness intensity,[6],2.0 points
"C[C@@H]1O[C@@H](O[C@H]2[C@H](Oc3cc(O)c4c(c3)O[C@H](c3ccc(O)cc3)CC4=O)O[C@H](CO)[C@@H](O)[C@@H]2O)[C@H](O)[C@H](O)[C@H]1O [Naringin, naringin, reference compound]",saltiness intensity,[1]; [7],1.8 points
same,saltiness intensity,[1]; [8],2.1 points
same,saltiness intensity,[1]; [9],2.2 points
same,saltiness enhancement function,[1],also showed a saltiness enhancement function
same,umami intensity (points),[2],0.12 points
same,degree of umami enhancement (times),[2],1.2 times
same,umami intensity (points),[3]; [10],0.35 points
same,degree of umami enhancement (times),[3]; [11],1.2 times
same,degree of umami enhancement (times),[3]; 30 ppm added to water,0 times
same,umami intensity (points),[3]; [12],0.00 points
same,umami enhancement function,[3],no enhancement of the umami intensity was observed
same,saltiness intensity,[4],0 points
"O=C1CC(c2ccccc2)Oc2cc(O)cc(O)c21 (stereo not drawn) [Pinocembrin, 5,7-dihydroxy-2-phenyl-2,3-dihydro-4H-chromene-4-one]",degree of umami enhancement (times),[5],1.67 times
same,umami intensity (points),[5],0.50 points
same,saltiness intensity,[6],2.0 points
"O=c1c(O)c(-c2ccc(O)c(O)c2)oc2cc(O)cc(O)c12 [Quercetin, reference compound]",degree of umami enhancement (times),[5],1.00 times
same,umami intensity (points),[5],0.30 points
same,saltiness intensity,[6],1.3 points
same,saltiness enhancement effect,"[6]; 30 ppm in salt water (NaCl 0.8%), function = 1.5 points or more",did not show a saltiness enhancement effect
